Molecules are shown by their SMILES.

The subject of series [1] is HCV replicon RNA (GenBank Accession No. AJ242654). The series can be described thus: HCV Replicon Assay (replicon RNA reduction and/or Fluc reporter signal). Conditions: Hepatitis C virus, 72 h, replicon-containing cells cultured with test compound for up to 3 days. The class given is cell-based, Hepatitis C virus. In short, it runs like this:
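IC50 values mostly reflect the drop in replicon RNA, though Fluc reporter signal may also be used. Compound incubated with cells carrying the bicistronic replicon for as long as 3 days; interferon served as positive control.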
In general terms: A replicon is a self-replicating genome or part of one, used to study replication in cells.

Take `COc1ccc(-n2c(-c3ccc(S(=O)(=O)N[C@@H](C)C(F)(F)F)cn3)c(C#N)c3cc(C(F)(F)F)cnc32)nc1` [Cpd 332, 6-[3-cyano-1-(5-methoxypyridin-2-yl)-5-(trifluoromethyl)-1H-pyrrolo[2,3-b]pyridin-2-yl]-N-[(2S)-1,1,1-trifluoropropan-2-yl]pyridine-3-sulfonamide]: the melting point – broadly, the temperature of the solid-liquid transition – was in the range of 203 to 206 °C. For the same molecule, in series [1], the IC50 (usually the point on the concentration scale where inhibition reaches its midpoint) is 500 to 2000 nM.

The molecule `COc1ccnc(-n2c(-c3ccc(S(=O)(=O)N[C@@H](C)C(F)(F)F)cn3)c(C#N)c3cc(C(F)(F)F)cnc32)n1` [Cpd 333, 6-[3-cyano-1-(4-methoxypyrimidin-2-yl)-5-(trifluoromethyl)-1H-pyrrolo[2,3-b]pyridin-2-yl]-N-[(2S)-1,1,1-trifluoropropan-2-yl]pyridine-3-sulfonamide] had a melting point of 209 to 211 °C. The molecule also yielded an IC50 in series [1] of 2000 to 5000 nM.

Take `CC(C)(C)NS(=O)(=O)c1ccc(-c2c(C#N)c3cc(C(F)(F)F)cnc3n2-c2ncccn2)cc1` [Cpd 334, N-tert-butyl-4-[3-cyano-1-(pyrimidin-2-yl)-5-(trifluoromethyl)-1H-pyrrolo[2,3-b]pyridin-2-yl]benzenesulfonamide]: the melting point lay in the range of 228 to 230 °C. The molecule further registered an IC50 in series [1] of 2000 to 5000 nM.

`CC(C)(C)NS(=O)(=O)c1ccc(-c2c(C#N)c3cc(C(F)(F)F)cnc3n2-c2cnccn2)cc1` [Cpd 335, N-tert-butyl-4-[3-cyano-1-(pyrazin-2-yl)-5-(trifluoromethyl)-1H-pyrrolo[2,3-b]pyridin-2-yl]benzenesulfonamide] returned a melting point of 190 to 192 °C. The same molecule displayed an IC50 in series [1] of less than 500 nM.

Molecule `CC(C)(C)NS(=O)(=O)c1ccc(-c2c(C#N)c3cc(C(F)(F)F)cnc3n2-c2ccccn2)cc1` [Cpd 336, N-tert-butyl-4-[3-cyano-1-(pyridin-2-yl)-5-(trifluoromethyl)-1H-pyrrolo[2,3-b]pyridin-2-yl]benzenesulfonamide] came in with a melting point of 227 to 230 °C. In series [1], this molecule yielded an IC50 of 500 to 2000 nM.

On to `CC(C)(C)NS(=O)(=O)c1ccc(-c2c(C#N)c3cc(C(F)(F)F)cnc3n2-c2ccccc2)cc1` [Cpd 337, N-tert-butyl-4-[3-cyano-1-phenyl-5-(trifluoromethyl)-1H-pyrrolo[2,3-b]pyridin-2-yl]benzenesulfonamide], for which the melting point lay in the range of 206 to 208 °C. The IC50 in series [1] was 500 to 2000 nM.

Regarding `Cc1nc(-c2c(C#N)c3cc(C(F)(F)F)cnc3n2C2CCC2)ccc1S(=O)(=O)N[C@@H](C)C(F)(F)F` [Cpd 338, 6-[3-cyano-1-cyclobutyl-5-(trifluoromethyl)-1H-pyrrolo[2,3-b]pyridin-2-yl]-2-methyl-N-[(2S)-1,1,1-trifluoropropan-2-yl]pyridine-3-sulfonamide], the melting point was 162 to 165 °C. Besides, the IC50 in series [1] was less than 500 nM.

`C[C@H](NS(=O)(=O)c1ccc(-c2c(C#N)c3cc(Br)cnc3n2-c2ncccn2)nc1)C(F)(F)F` [Cpd 339, 6-[5-bromo-3-cyano-1-(pyrimidin-2-yl)-1H-pyrrolo[2,3-b]pyridin-2-yl]-N-[(2S)-1,1,1-trifluoropropan-2-yl]pyridine-3-sulfonamide]: the melting point was in the range of 223 to 225 °C. The molecule further had an IC50 in series [1] of less than 500 nM.

With `C[C@H](NS(=O)(=O)c1ccc(-c2c(C#N)c3cc(Br)cnc3n2-c2cnccn2)nc1)C(F)(F)F` [Cpd 340, 6-[5-bromo-3-cyano-1-(pyrazin-2-yl)-1H-pyrrolo[2,3-b]pyridin-2-yl]-N-[(2S)-1,1,1-trifluoropropan-2-yl]pyridine-3-sulfonamide], the melting point was 247 to 248 °C. The molecule further registered an IC50 in series [1] of less than 500 nM.

As for `Cc1cnc2c(c1)c(C(N)=O)c(-c1ccc(S(=O)(=O)NC(C)(C)C(F)(F)F)cc1)n2C1CCC1` [Cpd 341, 1-cyclobutyl-5-methyl-2-{4-[(1,1,1-trifluoro-2-methylpropan-2-yl)sulfamoyl]phenyl}-1H-pyrrolo[2,3-b]pyridine-3-carboxamide], the melting point is 235 to 237 °C. In addition, the IC50 in series [1] is less than 500 nM.

The molecule `C[C@H](NS(=O)(=O)c1ccc(-c2c(C#N)c3cc(C4CC4)cnc3n2-c2cnccn2)nc1)C(F)(F)F` [Cpd 344, 6-[3-cyano-5-cyclopropyl-1-(pyrazin-2-yl)-1H-pyrrolo[2,3-b]pyridin-2-yl]-N-[(2S)-1,1,1-trifluoropropan-2-yl]pyridine-3-sulfonamide] registered a melting point of 219 to 221 °C. Further, the concentration for half-maximal inhibition (IC50) in series [1] was less than 500 nM.

Molecule `Cc1cnc2c(c1)c(C#N)c(-c1ccc(S(=O)(=O)N[C@@H](C)C(F)(F)F)cn1)n2-c1ncccn1` [Cpd 345, 6-[3-cyano-5-methyl-1-(pyrimidin-2-yl)-1H-pyrrolo[2,3-b]pyridin-2-yl]-N-[(2S)-1,1,1-trifluoropropan-2-yl]pyridine-3-sulfonamide] returned a melting point of 221 to 223 °C. The IC50 in series [1] was less than 500 nM.

`Cc1cnc2c(c1)c(C#N)c(-c1ccc(S(=O)(=O)N[C@@H](C)C(F)(F)F)cn1)n2-c1ccccn1` [Cpd 346, 6-[3-cyano-5-methyl-1-(pyridin-2-yl)-1H-pyrrolo[2,3-b]pyridin-2-yl]-N-[(2S)-1,1,1-trifluoropropan-2-yl]pyridine-3-sulfonamide] gave a melting point of 165 to 167 °C. Also, in series [1], the IC50 was less than 500 nM.

`Cc1cnc2c(c1)c(C#N)c(-c1ccc(S(=O)(=O)N[C@@H](C)C(F)(F)F)cn1)n2-c1cccnc1` [Cpd 347, 6-[3-cyano-5-methyl-1-(pyridin-3-yl)-1H-pyrrolo[2,3-b]pyridin-2-yl]-N-[(2S)-1,1,1-trifluoropropan-2-yl]pyridine-3-sulfonamide] returned a melting point of 205 to 207 °C. In series [1], this molecule showed an IC50 of less than 500 nM.

`Cc1cnc2c(c1)c(C#N)c(-c1ccc(S(=O)(=O)N[C@@H](C)C(F)(F)F)cn1)n2-c1ccccc1` [Cpd 348, 6-(3-cyano-5-methyl-1-phenyl-1H-pyrrolo[2,3-b]pyridin-2-yl)-N-[(2S)-1,1,1-trifluoropropan-2-yl]pyridine-3-sulfonamide] returned a melting point of 220 to 222 °C. Further, in series [1], the IC50 is less than 500 nM.

`Cc1cnc2c(c1)c(C#N)c(-c1ccc(S(=O)(=O)N[C@@H](C)C(F)(F)F)cn1)n2-c1cnccn1` [Cpd 349, 6-[3-cyano-5-methyl-1-(pyrazin-2-yl)-1H-pyrrolo[2,3-b]pyridin-2-yl]-N-[(2S)-1,1,1-trifluoropropan-2-yl]pyridine-3-sulfonamide] returned a melting point of 220 to 222 °C. Besides, the IC50 in series [1] is less than 500 nM.

Consider `CN(Cc1ccccc1)c1cnc2c(c1)c(C#N)c(-c1ccc(S(=O)(=O)NC(C)(C)C)cc1)n2C1CCC1` [Cpd 351, 4-{5-[benzyl(methyl)amino]-3-cyano-1-cyclobutyl-1H-pyrrolo[2,3-b]pyridin-2-yl}-N-tert-butylbenzenesulfonamide], for which the melting point fell in the range of 168 to 171 °C. Also, in series [1], the IC50 is 2000 to 5000 nM.

Take `Cc1ccnc(-n2c(-c3ccc(S(=O)(=O)N[C@@H](C)C(F)(F)F)cn3)c(C#N)c3cc(C(F)(F)F)cnc32)n1` [Cpd 355, 6-[3-cyano-1-(4-methylpyrimidin-2-yl)-5-(trifluoromethyl)-1H-pyrrolo[2,3-b]pyridin-2-yl]-N-[(2S)-1,1,1-trifluoropropan-2-yl]pyridine-3-sulfonamide]: the melting point lay within 176 to 180 °C. In series [1], this molecule returned an IC50 of less than 500 nM.

`C[C@H](NS(=O)(=O)c1ccc(-c2c(C(N)=O)c3cc(F)cnc3n2C2CCC2)nc1)C(F)(F)F` [Cpd 356, 1-cyclobutyl-5-fluoro-2-(5-{[(2S)-1,1,1-trifluoropropan-2-yl]sulfamoyl}pyridin-2-yl)-1H-pyrrolo[2,3-b]pyridine-3-carboxamide] registered a melting point of 223 to 225 °C. The molecule further displayed an IC50 in series [1] of less than 500 nM.

In turn, `COc1cnc2c(c1)c(C(N)=O)c(-c1ccc(S(=O)(=O)N[C@@H](C)C(F)(F)F)cn1)n2C1CCCC1` [Cpd 357, 1-cyclopentyl-5-methoxy-2-(5-{[(2S)-1,1,1-trifluoropropan-2-yl]sulfamoyl}pyridin-2-yl)-1H-pyrrolo[2,3-b]pyridine-3-carboxamide] displayed a melting point of 263 to 264 °C. This molecule also had an IC50 in series [1] of less than 500 nM.

`CSc1cnc2c(c1)c(C(N)=O)c(-c1ccc(NS(=O)(=O)C(C)C)cc1)n2C1CCCC1` [Cpd 358, 1-cyclopentyl-5-(methylsulfanyl)-2-{4-[(propan-2-ylsulfonyl)amino]phenyl}-1H-pyrrolo[2,3-b]pyridine-3-carboxamide] yielded a melting point of 250 to 252 °C. In series [1], this molecule had an IC50 of less than 500 nM.

`COc1cnc2c(c1)c(C(N)=O)c(-c1ccc(NS(=O)(=O)C(C)(C)C)cc1)n2C1CCCC1` [Cpd 359, 2-{4-[(tert-butylsulfonyl)amino]phenyl}-1-cyclopentyl-5-methoxy-1H-pyrrolo[2,3-b]pyridine-3-carboxamide] came in with a melting point of 269 to 272 °C. The same molecule showed an IC50 in series [1] of less than 500 nM.

Regarding `C[C@H](NS(=O)(=O)c1ccc(-c2c(C#N)c3cc(C(F)(F)F)cnc3n2C2CC2)nc1)C(F)(F)F` [Cpd 360, 6-[3-cyano-1-cyclopropyl-5-(trifluoromethyl)-1H-pyrrolo[2,3-b]pyridin-2-yl]-N-[(2S)-1,1,1-trifluoropropan-2-yl]pyridine-3-sulfonamide], the melting point lay in the range of 194 to 196 °C. The molecule further displayed an IC50 in series [1] of less than 500 nM.

The molecule `C[C@H](NS(=O)(=O)c1ccc(-c2c(C#N)c3cc([S+](C)[O-])cnc3n2C2CCC2)nc1)C(F)(F)F` (stereo partly drawn) [Cpd 363, [3-cyano-1-cyclobutyl-2-(5-{[(2S)-1,1,1-trifluoropropan-2-yl]sulfamoyl}pyridin-2-yl)-1H-pyrrolo[2,3-b]pyridin-5-yl](methyl)sulfoniumolate] returned a melting point of 257 to 258 °C. The same molecule showed an IC50 in series [1] of less than 500 nM.

As for `CSc1cnc2c(c1)c(C#N)c(-c1ccc(S(=O)(=O)NC3(C(F)(F)F)CC3)cc1)n2C1CCC1` [Cpd 364, 4-[3-cyano-1-cyclobutyl-5-(methylsulfanyl)-1H-pyrrolo[2,3-b]pyridin-2-yl]-N-[1-(trifluoromethyl)cyclopropyl]benzenesulfonamide], the melting point fell in the range of 197 to 199 °C. Further, the IC50 in series [1] is less than 500 nM.

(Values after patent US9593108B2, “Compounds and methods for antiviral treatment” (PTC Therapeutics, Inc., priority 2009, dated 2017).)
